# From publication PMC5923120, “Acylhydrazones as Antifungal Agents Targeting the Synthesis of Fungal Sphingolipids” (Antimicrobial Agents and Chemotherapy, 2018)
# Like-named read-outs stand apart in the source and are kept apart here.
# Tests used:
# [1] = tested on: Cryptococcus neoformans H99; test: Synergistic assay (FIC), CN; format: cell-based
# Experimental: (§1) Synergistic activity was assayed by calculating the fractional inhibitory index (FIC). Briefly, in a 96-well plate, drug A (D13) was serially diluted from 16 to 0.015 μg/ml (11 dilutions), whereas drug B (either fluconazole, amphotericin B, caspofungin, itraconazole, or voriconazole) was serially diluted from 12 to 0.19 μg/ml for fluconazole, 5 to 0.078 μg/ml for amphotericin B, or 8 to 0.007 μg/ml for caspofungin, itraconazole, or voriconazole (seven dilutions). The FIC was defined as (MIC combined/MIC drug A alone) + (MIC combined/MIC drug B alone). Synergism was categorized with the following scale: strongly synergistic effect, FIC of <0.5; synergistic effect, FIC of <1; additive effect, FIC of 1; no effect, FIC between 1 and 2; antagonistic effect, FIC of >2.
# in vitro [2] = settings: monkey
# Excerpt: A commercially available kit was used to examine permeability through the blood-brain barrier (BBB kit MBT-24; Pharmaco Cell Co. Ltd.). This kit allows us to perform a permeability assay using an in vitro reproduction of the blood-brain barrier using monkey brain. Briefly, in a 12-well plate there is a triple culture, with endothelial cells in the luminal part and perycites and astrocytes in the abluminal side connected by tight junctions. The luminal side of the well represents the blood side, whereas the abluminal side represents the brain side. The integrity of the blood-brain barrier is assessed by the measurement of TEER, which indicates the formation of tight junctions. To have an efficient system, the TEER should be >150 Ω cm^2. The kit is kept frozen at −80°C until it is ready to use. […] After that it takes 3 days for the cells to adjust, and then the plate can be used in 4 days for the experiment. For drug testing, after assessing the TEER, the drugs were added in the chosen medium at the desired concentrations and at different time points. At the end of each time point the TEER was measured to assess if the BBB was still intact. After that the medium was collected and subjected to MS to measure the concentration of the samples in the brain side and calculate the permeability value (Papp).
# Candida albicans A39 = test: Synergistic assay (FIC), CA; format: cell-based
# Experimental: as §1
# Candida albicans 3022 = test: Synergistic assay (FIC), CA Flu-R; format: cell-based; settings: Candida albicans, 3022; CA Flu-R
# Experimental: as §1
# Candida krusei ATCC 6258 = test: Synergistic assay (FIC), CK Flu R2; format: cell-based; settings: Pichia kudriavzevii, ATCC6258
# Experimental: as §1
# Candida krusei = test: Synergistic assay (FIC), CK Flu R1; format: cell-based; settings: Pichia kudriavzevii
# Experimental: as §1
# J774 = test: In vitro toxicity (MTT), J774; format: cell-based, murine; settings: Mus musculus, cytotoxicity
# Experimental: (§2) The murine macrophage cell line J774 and human cancer cell lines A549 and HepG2 were maintained in DMEM containing 10% fetal bovine serum (FBS) and 1% penicillin-streptomycin. At passage 7, 10^5 cells/well in DMEM containing 10% FBS were transferred into 96-well plates and cultured for 14 h for the cells to adhere to the wells. The compounds were added to the cells at concentrations ranging from 0.03 to 128 μg/ml. The wells without the compound served as controls. […] After 24 or 48 h, the supernatant was removed and 50 μl of 5-mg/ml 3-(4,5-dimethylthiazol-2-yl)-2,5-diphenyltetrazoliumbromide (MTT) solution in phosphate-buffered saline (PBS) was added to each well. The plates were incubated for an additional 4 h. The formazan crystal formed inside the cell was dissolved by adding 50 μl of dimethyl sulfoxide (DMSO). The optical density was measured at 570 nm.
# HepG2 = test: In vitro toxicity (MTT), HepG2; format: cell-based; settings: Homo sapiens, cytotoxicity
# Experimental: as §2
# C. neoformans [3] = test: In vitro susceptibility testing (MIC80); format: cell-based, Cryptococcus neoformans
# Experimental: MICs were determined by following the methods of the Clinical and Laboratory Standards Institute (CLSI), with modifications. […] The compounds were serially diluted from 32 to 0.03 μg/ml in a 96-well plate. The inoculum was prepared as described in CLSI protocol M27A3 guidelines ([39]). […] The MICs were determined as the lowest concentration of the compound that inhibited 80% of growth compared to the control.
# C. neoformans [4] = test: In vitro killing assay; settings: for K100*: minimum concentration that kills 100% of C. neoformans cells in 48 h
# Experimental: C. neoformans cells from a culture grown overnight were washed in PBS and resuspended in YNB buffered with HEPES at pH 7.4. The cells were counted, and 2 × 10^4 cells were incubated with different concentrations of the drugs in a final volume of 10 ml with a final concentration of 0.5% DMSO. The tubes were then incubated at 37°C with 5% CO2 on a rotary shaker at 200 rpm. Aliquots were taken at the time points indicated and diluted, and 100-µl portions were plated onto YPD plates.
# A549 = test: In vitro toxicity (MTT), A549; format: cell-based; settings: Homo sapiens, cytotoxicity
# Experimental: as §2
# Caco-2 permeability = settings: human
# Experimental: (§3) The Caco-2 permeability studies were performed as follows. (i) For the preparation of Caco cells, 50-μl and 25-ml volumes of cell culture medium were added to each well of the Transwell insert and reservoir, respectively. The HTS Transwell plates then were incubated at 37°C, 5% CO2 for 1 h before cell seeding. […] (ii) For the preparation of stock solutions, 10 mM stock solutions of test compounds were prepared in DMSO. The stock solutions of positive controls were prepared in DMSO at a concentration of 10 mM. Digoxin and propranolol were used as control compounds in this assay. (iii) For the assessment of cell monolayer integrity, medium was removed from the reservoir and each Transwell insert and replaced with prewarmed fresh culture medium. Transepithelial electrical resistance (TEER) across the monolayer was measured using a Millicell epithelial volt-Ohm measuring system (Millipore, USA). The plate was returned to the incubator once the measurement was done. The TEER value was calculated according to the following equation: TEER measurement (ohms) × area of membrane (cm^2) = TEER value (ohm · cm^2). The TEER value should be greater than 230 Ω · cm^2, which indicates a well-qualified Caco-2 monolayer. (iv) The assay was performed as follows. The Caco-2 plate was removed from the incubator and washed twice with prewarmed Hanks' balanced salt solution (HBSS; with 10 mM HEPES, pH 7.4) and then incubated at 37°C for 30 min. The stock solutions of control compounds were diluted in DMSO to get 1 mM solutions and then diluted with HBSS (10 mM HEPES, pH 7.4) to get 5 μM working solutions. The stock solutions of the test compounds were diluted in DMSO to get 1 mM solutions and then diluted with HBSS (10 mM HEPES, pH 7.4) to get 5 μM working solutions. The final concentration of DMSO in the incubation system was 0.5%. To determine the rate of drug transport in the apical to basolateral direction, 75 μl of 5 μM working solution of test compound was added to the Transwell insert (apical compartment), and the wells in the receiver plate (basolateral compartment) were filled with 235 μl of HBSS (10 mM HEPES, pH 7.4). To determine the rate of drug transport in the basolateral to apical direction, 235 μl of 5 μM working solution of test compound was added to the receiver plate wells (basolateral compartment), and then the Transwell inserts (apical compartment) were filled with 75 μl of HBSS (10 mM HEPES, pH 7.4). Time zero samples were prepared by transferring 50 μl of 5 μM working solution to wells of the 96-deep-well plate, followed by the addition of 200 μl cold acetonitrile or methanol containing appropriate IS. The plates were incubated at 37°C for 2 h. At the end of the incubation, 50-μl samples from donor sides (apical compartment for AP→BL flux and basolateral compartment for BL→AP) and receiver sides (basolateral compartment for AP→BL flux and apical compartment for BL→AP) were transferred to wells of a new 96-well plate, followed by the addition of 4 volumes of cold acetonitrile or methanol containing appropriate IS. […] An aliquot of 100 μl of the supernatant was mixed with an appropriate volume of ultrapure water before LC-MS/MS analysis. To determine the Lucifer yellow leakage after a 2-h transport period, a stock solution of Lucifer yellow was prepared in ultrapure water and diluted with HBSS (10 mM HEPES, pH 7.4) to reach a final concentration of 100 μM. One hundred microliters of the Lucifer yellow solution was added to each Transwell insert (apical compartment), followed by filling the wells in the receiver plate (basolateral compartment) with 300 μl of HBSS (10 mM HEPES, pH 7.4). The plates were incubated at 37°C for 30 min, and 80-μl samples were removed directly from the apical and basolateral wells (using the basolateral access holes) and transferred to wells of new 96-well plates.
# [5] = tested on: Aspergillus fumigatus 293; test: Synergistic assay (FIC), AF; format: cell-based
# Experimental: as §1
# in vitro [6] = settings: human
# Experimental: as §3
# C. neoformans [7] = test: Mouse model of cryptococcosis; format: in vivo, mice
# C. albicans = test: Mouse model of invasive candidiasis; format: in vivo, mice; settings: oral gavage 20 mg/kg/day
# Aspergillus fumigatus = test: Mouse model of invasive pulmonary aspergillosis; format: in vivo, mice; settings: oral 20 mg/kg/day
# Experimental: For survival study, 8-week-old CBA/J (Envigo) male mice were used. They were divided into sets of 10 mice for each treatment or control group. The day prior to infection, the mice were immunosuppressed by using triamcinolone acetonide (1 mg/mouse) subcutaneously ([40]). On day 0, mice were infected intranasally with 20 μl of a suspension containing 2 × 10^4 conidia of A. fumigatus strain Af293 and were treated through gavage with 20 mg/kg/day of BHBM, D13, or voriconazole (as a drug control) in a final volume of 100 μl of 30% PEG in saline buffer. The untreated control group mice received 100 μl of 30% PEG in saline buffer. Mice were fed ad libitum and were given 50% grapefruit juice in place of normal drinking water to avoid the liver metabolism of the drugs ([41]). Mice were monitored every day for discomfort and sacrificed subsequently.
# [8] = Cryptococcus neoformans, ChemBridge compounds, Supplementary Table 1, read-out: MIC80
# [9] = lowest concentration inhibiting 80% of growth
compound,measurement,setting,value
"C[C@@H]1[C@H](O)[C@@H](C)/C=C/C=C/C=C/C=C/C=C/C=C/C=C/[C@H](O[C@@H]2O[C@H](C)[C@@H](O)[C@H](N)[C@@H]2O)C[C@@H]2O[C@](O)(C[C@@H](O)C[C@@H](O)[C@H](O)CC[C@@H](O)C[C@@H](O)CC(=O)O[C@H]1C)C[C@H](O)[C@H]2C(=O)O [AB, amphotericin B]",MIC,[1],0.25 µg/mL
"Cn1c(=O)c2c(ncn2C)n(C)c1=O [Caffeine, reference compound]",Papp at 5 min,in vitro [2],20 ×10⁻⁶ cm/s
same,Papp at 15 min,in vitro [2],25 ×10⁻⁶ cm/s
same,Papp at 30 min,in vitro [2],25 ×10⁻⁶ cm/s
"CC[C@H](C)C[C@H](C)CCCCCCCCC(=O)N[C@H]1C[C@@H](O)[C@@H](NCCN)NC(=O)[C@@H]2[C@@H](O)CCN2C(=O)[C@H]([C@H](O)CCN)NC(=O)[C@H]([C@H](O)[C@@H](O)c2ccc(O)cc2)NC(=O)[C@@H]2C[C@@H](O)CN2C(=O)[C@H]([C@@H](C)O)NC1=O [Caspo, capsofungin]",MIC,Candida albicans A39,0.12 µg/mL
same,MIC,Candida albicans 3022,0.06 µg/mL
same,MIC,Candida krusei ATCC 6258,1 µg/mL
same,MIC,Candida krusei,1 µg/mL
O=C(N/N=C/c1cc(Br)ccc1O)c1cccc(Br)c1 [D2],IC50,J774,16 µg/mL
same,IC50,HepG2,16 µg/mL
same,MIC80,C. neoformans [3]; [8],0.25 µg/mL
same,MIC80,C. neoformans [3]; [9],0.25 µg/mL
same,K100*,C. neoformans [4],0.12 µg/mL
same,IC50,A549,16 µg/mL
O=C(N/N=C/c1cc(Br)ccc1O)c1cc(Br)cc(Br)c1O [D17],IC50,J774,16 µg/mL
same,IC50,HepG2,16 µg/mL
same,MIC80,C. neoformans [3]; [8],0.5 µg/mL
same,MIC80,C. neoformans [3]; [9],0.5 µg/mL
same,K100*,C. neoformans [4],0.5 µg/mL
same,time to kill C. neoformans,C. neoformans [4]; time-kill assay,6 h
same,IC50,A549,16 µg/mL
"C[C@H]1O[C@@H](O[C@H]2[C@@H](O)C[C@H](O[C@H]3[C@@H](O)C[C@H](O[C@H]4CC[C@@]5(C)[C@H](CC[C@@H]6[C@@H]5C[C@@H](O)[C@]5(C)[C@@H](C7=CC(=O)OC7)CC[C@]65O)C4)O[C@@H]3C)O[C@@H]2C)C[C@H](O)[C@@H]1O [Digoxin, reference compound]","Papp A→B at 2 h, 5 μM","Caco-2 permeability; Caco-2, pH 7.4",0.61 ×10⁻⁶ cm/s
same,"Papp B→A at 2 h, 5 μM","Caco-2 permeability; Caco-2, pH 7.4",20.2 ×10⁻⁶ cm/s
same,"efflux ratio at 2 h, 5 μM","Caco-2 permeability; Caco-2, pH 7.4, Efflux ratio",33.2
same,"recovery at 2 h, 5 μM","Caco-2 permeability; Caco-2, pH 7.4, Recovery AP→BL",82.7%
same,"recovery at 2 h, 5 μM","Caco-2 permeability; Caco-2, pH 7.4, Recovery BL→AP",95.6%
"CCC(C)n1ncn(-c2ccc(N3CCN(c4ccc(OCC5COC(Cn6cncn6)(c6ccc(Cl)cc6Cl)O5)cc4)CC3)cc2)c1=O (stereo not shown) [Itra, itraconazole]",MIC,Candida albicans A39,0.06 µg/mL
same,MIC,Candida albicans 3022,2 µg/mL
same,MIC,[5],0.25 µg/mL
same,MIC,Candida krusei ATCC 6258,1 µg/mL
same,MIC,[1],0.06 µg/mL
same,MIC,Candida krusei,1 µg/mL
CC(C)NCC(O)COc1cccc2ccccc12 (stereo not shown) [Propranolol],"Papp A→B at 2 h, 5 μM","in vitro [6]; Caco-2, pH 7.4",34.4 ×10⁻⁶ cm/s
same,"Papp B→A at 2 h, 5 μM","in vitro [6]; Caco-2, pH 7.4",19.5 ×10⁻⁶ cm/s
same,"efflux ratio at 2 h, 5 μM","in vitro [6]; Caco-2, pH 7.4",0.57
same,"recovery at 2 h, 5 μM","in vitro [6]; Caco-2, pH 7.4, Recovery AP→BL",90.7%
same,"recovery at 2 h, 5 μM","in vitro [6]; Caco-2, pH 7.4, Recovery BL→AP",95.5%
OC(Cn1cncn1)(Cn1cncn1)c1ccc(F)cc1F [fluconazole],MIC,Candida albicans A39,2.5 µg/mL
same,MIC,Candida albicans 3022,> 16 µg/mL
same,mice that survived,"C. neoformans [7]; i.p. 1.2 mg/kg/day, treatment immediately after intranasal infection, 40 days",60%
same,mice that survived until the end of the experiment,"C. neoformans [7]; i.p. 1.2 mg/kg/day, treatment started 5 days after infection",20%
same,mice that survived until the end of the experiment,C. neoformans [7]; oral 20 mg/kg/day starting the day of infection,20%
same,CFU in brains and lungs,"C. neoformans [7]; oral 20 mg/kg/day, 32 days posttreatment, data not shown",numerous colonies in the lungs and brain
same,MIC,[5],> 10 µg/mL
same,time within which mice died,C. albicans,≤ 12 days
same,MIC,Candida krusei ATCC 6258,> 16 µg/mL
same,MIC,[1],2.5 µg/mL
same,MIC,Candida krusei,16 µg/mL
"C[C@@H](c1ncncc1F)[C@](O)(Cn1cncn1)c1ccc(F)cc1F [voriconazole, reference compound]",MIC,[5],1 µg/mL
same,lung fungal burden (CFU) of surviving mice,"Aspergillus fumigatus; at the endpoint, data not shown",showed evidence of colonies
same,mice that survived,"Aspergillus fumigatus; immunosuppressed mice, after 15 days",40%
same,MIC,[1],4 µg/mL
